# According to ChEMBL document CHEMBL1134234, “NO-independent stimulators of soluble guanylate cyclase” (Bioorg Med Chem Lett, 2001):
# Tests used:
# Oryctolagus cuniculus [1] = species on record: Oryctolagus cuniculus; assay: (§1) Ability to inhibit maximum constriction of phenylephrine-treated precontracted (3x10 -8 g/mL) rabbit aortic rings; type: functional; conditions: Aorta
# Oryctolagus cuniculus [2] = species on record: Oryctolagus cuniculus; assay: as §1; type: functional, Aorta
SMILES,IC50 (Oryctolagus cuniculus [1]),Inhibition (Oryctolagus cuniculus [2])
N#Cc1cccc(Cn2nc(-c3ccc(CO)o3)c3ccccc32)c1,26 µM,
Nc1nc(-c2nn(Cc3ccccc3F)c3ncccc23)ncc1C1CCCC1,0.904 µM,
OCc1ccc(-c2nn(Cc3cncnc3)c3ccccc23)o1,3.2 µM,
Cc1oc(-c2nn(Cc3ccccc3F)c3ncccc23)nc1CO,1.5 µM,
OCc1ccc(-c2nn(Cc3cccnc3)c3ccccc23)o1,9.6 µM,
OCc1ccc(-c2nn(Cc3ccccn3)c3ccccc23)o1,16 µM,
Fc1ccccc1Cn1nc(-c2ccccn2)c2cccnc21,4.8 µM,
CCCCCc1cnc(-c2nn(Cc3ccccc3F)c3ncccc23)nc1N,200 µM,
N#Cc1ccccc1Cn1nc(-c2ccc(CO)o2)c2ccccc21,8.7 µM,
CC(C)(C)c1cnc(-c2nn(Cc3ccccc3F)c3ncccc23)nc1N,0.709 µM,
OCc1ccnc(-c2nn(Cc3ccccc3F)c3ncccc23)n1,1.3 µM,
N#CCCc1cnc(-c2nn(Cc3ccccc3F)c3ncccc23)nc1N,412 µM,
CC(C)c1cnc(-c2nn(Cc3ccccc3F)c3ncccc23)nc1N,207 µM,
OCc1ccc(-c2nn(Cc3ccccc3F)c3ccccc23)o1,4.9 µM,
CCOP(=O)(OCC)c1cnc(-c2nn(Cc3ccccc3F)c3ncccc23)nc1N,414 µM,
Cc1coc(-c2nn(Cc3ccccc3F)c3ncccc23)n1,1.2 µM,
CCc1c[nH]c(-c2nn(Cc3ccccc3F)c3ncccc23)n1,0.6 µM,
Cc1cnc(-c2nn(Cc3ccccc3F)c3ncccc23)nc1N,675 µM,
NCc1cnc(-c2nn(Cc3ccccc3F)c3ncccc23)nc1N,1.4 µM,
OCc1ccc(-c2nn(Cc3ccc(Cl)s3)c3ccccc23)o1,7.2 µM,

SMILES,IC50 (Oryctolagus cuniculus [1]),Inhibition (Oryctolagus cuniculus [2])
CSc1cnc(-c2nn(Cc3ccccc3F)c3ncccc23)nc1N,243 µM,
Fc1ccccc1Cn1nc(-c2nn[nH]n2)c2cccnc21,8.6 µM,
N#Cc1cnc(-c2nn(Cc3ccccc3F)c3ncccc23)nc1N,391 µM,
COc1cnc(-c2nn(Cc3ccccc3F)c3ncccc23)nc1N,343 µM,
OCc1ccc(-c2nn(Cc3ccccc3F)c3cccnc23)o1,20.4 µM,27%
Nc1nc(-c2nn(Cc3ccccc3F)c3ncccc23)ncc1C1CCC1,633 µM,
Fc1ccccc1Cn1nc(C2=NCCN2)c2cccnc21,3.2 µM,
CCc1cnc(-c2nn(Cc3ccccc3F)c3ncccc23)nc1N,272 µM,
CC(C)S(=O)(=O)c1cnc(-c2nn(Cc3ccccc3F)c3ncccc23)nc1N,517 µM,
OCc1ccc(-c2nn(Cc3ccccc3)c3ccccc23)o1,10 µM,
OCc1ccc(-c2nn(Cc3ccccc3F)c3ncccc23)o1,1.7 µM,
Nc1nc(-c2nn(Cc3ccccc3F)c3ncccc23)ncc1N1CCSCC1,650 µM,
CCCCc1cnc(-c2nn(Cc3ccccc3F)c3ncccc23)nc1N,218 µM,
CCCS(=O)(=O)c1cnc(-c2nn(Cc3ccccc3F)c3ncccc23)nc1N,378 µM,
OCc1ccc(-c2nn(Cc3ccccc3F)c3cnccc23)o1,6.93 µM,
Nc1nc(-c2nn(Cc3ccccc3F)c3ncccc23)ncc1C1CCCCC1,561 µM,
Fc1ccccc1Cn1nc(-c2cc[nH]n2)c2cccnc21,1.8 µM,
CC(C#N)CCCCCc1cnc(-c2nn(Cc3ccccc3F)c3ncccc23)nc1N (centres undefined),1290 µM,
Nc1nc(-c2nn(Cc3ccccc3F)c3ncccc23)ncc1N1CCOCC1,306 µM,
CS(=O)(=O)c1cnc(-c2nn(Cc3ccccc3F)c3ncccc23)nc1N,261 µM,

SMILES,IC50 (Oryctolagus cuniculus [1]),Inhibition (Oryctolagus cuniculus [2])
OCc1ccc(-c2nn(Cc3ccc(F)cc3)c3ccccc23)o1,19 µM,
N#CCCCCCc1cnc(-c2nn(Cc3ccccc3F)c3ncccc23)nc1N,588 µM,
Nc1nc(-c2nn(Cc3ccccc3F)c3ncccc23)ncc1F,478 µM,
OCc1ccc(-c2nn(Cc3ccccc3F)c3ccncc23)o1,9.8 µM,
CCCc1cnc(-c2nn(Cc3ccccc3F)c3ncccc23)nc1N,252 µM,
Nc1nc(-c2nn(Cc3ccccc3F)c3ncccc23)ncc1CC(F)(F)F,508 µM,
Cc1nc(-c2nn(Cc3ccccc3F)c3ncccc23)oc1CO,0.9 µM,
NS(=O)(=O)c1ccc(-c2nn(Cc3ccccc3F)c3ncccc23)o1,8 µM,
OCc1ccc(-c2nn(Cc3ccccc3F)c3ncncc23)o1,9.4 µM,
CCCCCCc1cnc(-c2nn(Cc3ccccc3F)c3ncccc23)nc1N,1.04 µM,
Nc1nc(-c2nn(Cc3ccccc3F)c3ncccc23)ncc1C1=CCCC1,0.836 µM,
Nc1nc(-c2nn(Cc3ccccc3F)c3ncccc23)ncc1C1CC1,304 µM,
OCc1ccc(-c2nn(Cc3cccc(F)c3)c3ccccc23)o1,10 µM,
Nc1nc(-c2nn(Cc3ccccc3F)c3ncccc23)nc(N)c1C1CC1,233 µM,
Fc1ccccc1Cn1nc(-c2ccco2)c2cccnc21,9.3 µM,
OCc1ccc(-c2nn(Cc3c(F)cccc3F)c3ccccc23)o1,15 µM,
Fc1ccccc1Cn1nc(-c2ncccn2)c2cccnc21,1.25 µM,
Cc1cc(N)nc(-c2nn(Cc3ccccc3F)c3ncccc23)n1,536 µM,
